Several values for one entry are separate records, joined by “and”; a condition that tells them apart may be missing. Identical values can stand only once. Entries after “also recorded” stand apart in the source; their conditions may differ. Like-named read-outs stand apart in the source and are kept apart here.
Key:
[1] = assay type: in vivo, Male Sprague-Dawley rats; settings: rats, iv
Experimental: Male Sprague-Dawley rats (225-300 g) allowed free access to food and water were used for in vivo biodistribution studies. Kung, 1984, supra; Kung, 1985, supra. While under ether anesthesia, 0.2 mL of a saline solution containing 1.19a, 1.19b, 1.20a, 1.20b or 1.21 (50-100 μCi) was injected directly into the femoral vein of rats, and the rats were sacrificed by cardiac excision at various time points post-injection. The organs of interest were removed and weighed, and the radioactivity was counted with an automatic gamma counter (Packard 5000). The percentage dose per organ was calculated by a comparison of the tissue counts to suitably diluted aliquots of the injected material. Total activities of blood and muscle were calculated under the assumption that they were 7% and 40% of the total body weight, respectively.
(§1) The major criteria for determining the potential usefulness of in vivo dopamine transporter imaging agents are based on an animal biodistribution study. In this case, rats were used as an animal model. After an intravenous injection of the Tc-99m labeled compounds, the values of initial brain uptake (% dose/whole organ) at 2 minutes post intravenous injection are used to measure the ability to penetrate the intact blood-brain barrier. Compounds displaying higher brain uptake are the better agents (minimum requirement >0.1% dose in brain). The second criteria is the specific uptake in the striatum region of the brain, where dopamine transporters are located. The uptake value (% dose/gram) of the striatum (ST) is divided by the background area, cerebellum (CB; essentially devoid of dopamine transporter); the ratio of ST/CB is an indicator for specific uptake (minimum requirement for ST/CB >1.5). Five structurally similar tropane derivatives were examined in this biological study. (Tables 1.1 to 1.4).
Male Sprague-Dawley rats (225-300 g) that were allowed free access to food and water were used for in vivo biodistribution studies. (Kung, 1984, supra; Kung, 1985, supra). While under halothane anesthesia, 0.2 mL of a saline solution containing 3.24 to 3.34 ([…]) was injected directly into the femoral vein of rats, and they were sacrificed by cardiac excision at various time points post-injection. The organs of interest were removed and weighed, and the radioactivity was counted with an automatic gamma counter (Packard 5000). The percentage dose per organ was calculated by a comparison of the tissue counts to suitably diluted aliquots of the injected material. Total activities of blood and muscle were calculated under the assumption that they were 7% and 40% of the total body weight, respectively.

[2] = molecular target: dopamine transporters (Rattus norvegicus, UniProt P23977); assay type: in vivo, Male Sprague-Dawley rats; settings: rats, iv
dopamine transporters (Rattus norvegicus, UniProt P23977), sequence (P23977 whole entry): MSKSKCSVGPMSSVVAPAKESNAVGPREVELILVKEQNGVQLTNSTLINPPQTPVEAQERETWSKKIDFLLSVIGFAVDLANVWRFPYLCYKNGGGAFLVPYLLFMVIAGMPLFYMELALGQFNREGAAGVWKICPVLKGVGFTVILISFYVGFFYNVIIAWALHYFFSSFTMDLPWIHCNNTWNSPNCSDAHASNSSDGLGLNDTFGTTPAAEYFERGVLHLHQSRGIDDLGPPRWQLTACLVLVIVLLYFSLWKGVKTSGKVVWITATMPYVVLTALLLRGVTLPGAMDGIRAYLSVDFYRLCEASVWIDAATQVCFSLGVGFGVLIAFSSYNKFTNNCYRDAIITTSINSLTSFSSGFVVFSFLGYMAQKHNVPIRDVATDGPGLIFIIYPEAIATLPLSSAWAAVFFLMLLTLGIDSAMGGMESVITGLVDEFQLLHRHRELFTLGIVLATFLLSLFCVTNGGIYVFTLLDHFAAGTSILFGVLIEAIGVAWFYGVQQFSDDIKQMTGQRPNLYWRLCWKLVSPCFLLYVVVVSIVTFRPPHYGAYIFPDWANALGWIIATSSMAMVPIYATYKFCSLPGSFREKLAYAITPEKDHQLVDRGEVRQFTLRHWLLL
Experimental: For dopamine transporter imaging agents, the target area of the brain is the striatum, where dopamine transporters are highly concentrated. The cerebellum region is suitable for use as the background region, because it has no dopamine transporters. The specific uptake is measured by the ratio of % dose/gram of striatum divided by % dose/gram of cerebellum (ST/CB ratio)--the higher the value, the better the specific uptake, and the more promising as a dopamine transporter imaging agent.
(§2) Regional brain distribution in rats was obtained after an injection of 1.19a, 1.19b, 1.20a, 1.20b or 1.21. Samples from different brain regions (cortex, striatum, hippocampus, and cerebellum) were dissected, weighed and counted, and the percentage dose per gram of sample was calculated by comparing the sample counts with the count of the diluted initial dose. The uptake ratio of each region was obtained by dividing the percentage dose per gram of that region by that of the cerebellum. For blocking studies, rats were injected with either β-CIT or haloperidol (iv, 1 mg/Kg) 5 min prior to injection of 1.19a. The rats were dissected and brain tissue samples were counted as described above. The specific uptake of the compound was expressed as ratio of ST/CB (% dose/g of striatum divided by the same of cerebellum).
as §1
as §2, with “3.24 to 3.34.” for “1.19a, 1.19b, 1.20a, 1.20b or 1.21.”, “3.25.” for “1.19a.”, “above.” for “above. The specific uptake of the compound was expressed as ratio of ST/CB (% dose/g of striatum divided by the same of cerebellum).”

[3] = test system: dopamine transporters; settings: cited from earlier work; for Literature binding / localization / biodistribution, in words: in vivo; for Time for reaching optimal uptake ratio / equilibrium: basal ganglia versus frontal cortex
[4] = test system: dopamine transporter; test: Blocking studies in rats (pretreatment or co-injection with competing agent); assay type: in vivo, Male Sprague-Dawley rats; settings: 1 mg/kg iv, 5 min before tracer, rats
Experimental: as §2
as §2, with “3.24 to 3.34.” for “1.19a, 1.19b, 1.20a, 1.20b or 1.21.”, “3.25.” for “1.19a.”, “above.” for “above. The specific uptake of the compound was expressed as ratio of ST/CB (% dose/g of striatum divided by the same of cerebellum).”

COC(=O)C1C(c2ccc(Cl)cc2)CC2CCC1N2CCC[N+]12CC[S][99Tc-]13(=[O])[S]CC[N]3CC2 (mixture of isomers) [Compound 2.6a]
Brain uptake, 2 min [1]: 0.27 ± 0.02 % dose/organ
Brain uptake, 30 min [1]: 0.11 ± 0.02 % dose/organ
Brain uptake and specific striatal uptake, in words [2]: displayed a significant brain uptake and specific uptake to the striatum area of the rat brain

CN1[C@H]2CC[C@@H]1[C@@H](C[N+]13CC[S][99Tc-]14(=[O])[S]CC[N]4CC3)[C@@H](c1ccc(Cl)cc1)C2 (single isomer, unassigned; peak a) [Peak A (1.19a)]
Blood uptake, 2 min [1]: 1.98 ± 0.19 % dose/organ
Brain uptake, 2 min [1]: 0.5 % dose/organ and 0.50 ± 0.06 % dose/organ
Heart uptake, 2 min [1]: 1.76 ± 0.09 % dose/organ
Kidney uptake, 2 min [1]: 5.47 ± 1.04 % dose/organ
Liver uptake, 2 min [1]: 9.55 ± 2.19 % dose/organ
Lung uptake, 2 min [1]: 9.68 ± 0.51 % dose/organ
Muscle uptake, 2 min [1]: 33.61 ± 4.31 % dose/organ
Skin uptake, 2 min [1]: 2.73 ± 0.39 % dose/organ
Spleen uptake, 2 min [1]: 0.27 ± 0.04 % dose/organ
Blood uptake, 60 min [1]: 1.00 ± 0.15 % dose/organ
Brain uptake, 60 min [1]: 0.21 ± 0.01 % dose/organ
Heart uptake, 60 min [1]: 0.21 ± 0.00 % dose/organ
Kidney uptake, 60 min [1]: 2.04 ± 0.21 % dose/organ
Liver uptake, 60 min [1]: 17.75 ± 1.81 % dose/organ
Lung uptake, 60 min [1]: 3.06 ± 0.28 % dose/organ
Muscle uptake, 60 min [1]: 14.98 ± 0.49 % dose/organ
Skin uptake, 60 min [1]: 3.56 ± 0.65 % dose/organ
Spleen uptake, 60 min [1]: 0.46 ± 0.18 % dose/organ
ST/CB ratio, 60 min [2]: 2.72

COC(=O)[C@H]1[C@@H](c2ccc(Cl)cc2)C[C@@H]2CC[C@H]1N2CCC[N+]12CC[S][99Tc-]13(=[O])[S]CC[N]3CC2 (single isomer, unassigned; peak a) [peak A of (2.6a)]
Blood uptake, 2 min [1]: 2.41 ± 0.33 % dose/organ
Brain uptake, 2 min [1]: 0.25 ± 0.04 % dose/organ
Heart uptake, 2 min [1]: 0.79 ± 0.03 % dose/organ
Kidney uptake, 2 min [1]: 2.97 ± 0.09 % dose/organ
Liver uptake, 2 min [1]: 14.29 ± 2.56 % dose/organ
Lung uptake, 2 min [1]: 15.63 ± 2.31 % dose/organ
Muscle uptake, 2 min [1]: 7.78 ± 0.32 % dose/organ
Skin uptake, 2 min [1]: 1.59 ± 0.68 % dose/organ
Spleen uptake, 2 min [1]: 0.42 ± 0.10 % dose/organ
Blood uptake, 30 min [1]: 1.16 ± 0.06 % dose/organ
Brain uptake, 30 min [1]: 0.13 ± 0.02 % dose/organ
Heart uptake, 30 min [1]: 0.22 ± 0.02 % dose/organ
Kidney uptake, 30 min [1]: 1.25 ± 0.11 % dose/organ
Liver uptake, 30 min [1]: 20.87 ± 2.23 % dose/organ
Lung uptake, 30 min [1]: 9.65 ± 1.37 % dose/organ
Muscle uptake, 30 min [1]: 10.41 ± 1.26 % dose/organ
Skin uptake, 30 min [1]: 5.69 ± 0.73 % dose/organ
Spleen uptake, 30 min [1]: 0.42 ± 0.05 % dose/organ

CN1[C@H]2CC[C@@H]1[C@@H](C[N+]13CC[S][99Tc-]14(=[O])[S]CC[N]4CC3)[C@@H](c1ccc(Cl)cc1)C2 (single isomer, unassigned; peak b) [peak B (1.19a)]
Blood uptake, 2 min [1]: 4.02 ± 0.20 % dose/organ
Brain uptake, 2 min [1]: 0.28 ± 0.01 % dose/organ
Heart uptake, 2 min [1]: 1.28 ± 0.15 % dose/organ
Kidney uptake, 2 min [1]: 4.47 ± 0.69 % dose/organ
Liver uptake, 2 min [1]: 9.07 ± 1.66 % dose/organ
Lung uptake, 2 min [1]: 6.00 ± 1.11 % dose/organ
Muscle uptake, 2 min [1]: 41.46 ± 11.33 % dose/organ
Skin uptake, 2 min [1]: 3.43 ± 0.62 % dose/organ
Spleen uptake, 2 min [1]: 0.27 ± 0.03 % dose/organ
Brain uptake, 2 min ([1]; listed as Peak B): 0.28 % dose/organ
Blood uptake, 60 min [1]: 1.89 ± 0.21 % dose/organ
Brain uptake, 60 min [1]: 0.12 ± 0.02 % dose/organ
Heart uptake, 60 min [1]: 0.19 ± 0.06 % dose/organ
Kidney uptake, 60 min [1]: 1.87 ± 0.80 % dose/organ
Liver uptake, 60 min [1]: 18.71 ± 2.54 % dose/organ
Lung uptake, 60 min [1]: 1.23 ± 0.89 % dose/organ
Muscle uptake, 60 min [1]: 8.60 ± 2.51 % dose/organ
Skin uptake, 60 min [1]: 4.11 ± 0.62 % dose/organ
Spleen uptake, 60 min [1]: 0.41 ± 0.24 % dose/organ
ST/CB ratio, 60 min [2]: 3.79

COC(=O)[C@H]1[C@@H](c2ccc(Cl)cc2)C[C@@H]2CC[C@H]1N2CCC[N+]12CC[S][99Tc-]13(=[O])[S]CC[N]3CC2 (single isomer, unassigned; peak b) [peak B of (2.6a)]
Blood uptake, 2 min [1]: 3.96 ± 0.70 % dose/organ
Brain uptake, 2 min [1]: 0.19 ± 0.041 % dose/organ
Heart uptake, 2 min [1]: 0.70 ± 0.21 % dose/organ
Kidney uptake, 2 min [1]: 2.03 ± 0.45 % dose/organ
Liver uptake, 2 min [1]: 19.56 ± 3.21 % dose/organ
Lung uptake, 2 min [1]: 19.16 ± 2.06 % dose/organ
Muscle uptake, 2 min [1]: 9.92 ± 1.04 % dose/organ
Skin uptake, 2 min [1]: 1.25 ± 0.17 % dose/organ
Spleen uptake, 2 min [1]: 0.42 ± 0.10 % dose/organ
Blood uptake, 30 min [1]: 1.82 ± 0.43 % dose/organ
Brain uptake, 30 min [1]: 0.094 ± 0.026 % dose/organ
Heart uptake, 30 min [1]: 0.24 ± 0.08 % dose/organ
Kidney uptake, 30 min [1]: 1.24 ± 0.18 % dose/organ
Liver uptake, 30 min [1]: 28.57 ± 2.94 % dose/organ
Lung uptake, 30 min [1]: 12.51 ± 1.46 % dose/organ
Muscle uptake, 30 min [1]: 8.09 ± 1.686 % dose/organ
Skin uptake, 30 min [1]: 3.25 ± 0.76 % dose/organ
Spleen uptake, 30 min [1]: 0.67 ± 0.17 % dose/organ

COC(=O)[C@H]1[C@@H](c2ccc(F)cc2)C[C@@H]2CC[C@H]1N2C [CFT (WIN35,428)]
Literature binding / localization / biodistribution, in words [3]: much higher binding affinity and selectivity to dopamine reuptake sites

CN1[C@H]2CC[C@@H]1[C@@H](C[N+]13CC[S][99Tc-]14(=[O])[S]CC[N]4CC3)[C@@H](c1ccc(Br)cc1)C2 (some centres unmarked) [Compound 1.20c]
Brain uptake, 2 min [1]: 0.41 ± 0.03 % dose/organ
Brain uptake, 60 min [1]: 0.18 ± 0.01 % dose/organ
Brain uptake and specific striatal uptake, in words [2]: high initial uptake and high specific retention in brain
ST/CB ratio, 60 min [2]: 2.82 and 2.82 ± 0.19

COC(=O)C1C(c2ccc(F)cc2)CC2CCC1N2CCCN(CC[S-])CC([O-])=NCC[S-].[O]=[99Tc+3] (centres unmarked) [Technepine]
Literature binding / localization / biodistribution, in words [3]: poor biodistribution
Literature binding / localization / biodistribution, in words ([3]; listed as technepine): less favorable biological properties

COC(=O)[C@H]1[C@@H](c2ccc([123I])cc2)C[C@@H]2CC[C@H]1N2CCCF [[^123 I]-β-CIT-FP]
Time for reaching optimal uptake ratio / equilibrium [3]: less than one hour

COC(=O)[C@H]1[C@@H](OC(=O)c2ccccc2)C[C@@H]2CC[C@H]1N2C [cocaine]
Literature binding / localization / biodistribution, in words [3]: largely concentrated in the basal ganglia

O=C(CCCN1CCC(O)(c2ccc(Cl)cc2)CC1)c1ccc(F)cc1 [haloperidol, reference compound]
Effect of pretreatment on specific striatal uptake of tracer [4]: no blocking effect was observed

COC(=O)[C@H]1[C@@H](c2ccc(I)cc2)C[C@@H]2CC[C@H]1N2C [β-CIT, N-methyl-2b-carbomethoxy-3b-(4-iodophenyl)tropane, reference compound]
Effect of pretreatment on specific striatal uptake of tracer [4]: could be blocked; also recorded: showed blocking of the specific uptake
Effect of pretreatment on specific striatal uptake of tracer ([4]; listed as RTI-55): could be blocked
Time for reaching optimal uptake ratio / equilibrium [3]: > 18 h
Literature binding / localization / biodistribution, in words [3]: much higher binding affinity and selectivity to dopamine reuptake sites

Reference: US6241963A, “Dopamine and serotonin transporter ligands and imaging agents” (priority 1996, dated 2001)
